The text below walks through data of US5561133A, “Thymidylate synthase inhibiting quinazolinones” (British Technology Group Limited, priority 1992, dated 1996).

For data set [1] the following is noted: particularly liver and kidneys; cited from earlier work.
Data set [2] relates to human breast,ovarian and liver cancer. To be noted: clinical, humans; cited from earlier work.
Another data set concerns L1210 cell line. Put plainly: inhibition of growth of the leukaemia cell line L1210 in cell culture. The class given is cell-based. To be noted: Mus musculus, read-out: IC50 against the L1210 cell line. From the text:
(b) An assay which determines the ability of a test compound to inhibit the growth of the leukaemia cell line L1210 in cell culture. The test may be similar to that described in UK Patent Specification No. 2065653B; and […]

Another data set deals with MCF-7 cell line. The data set can be described thus: inhibition of growth of the human breast cancer cell line MCF-7 in cell culture. It counts as cell-based. The following applies: MCF7, MCF-7 cell culture, read-out: IC50 against the MCF-7 cell line. From the text:
(c) An assay which determines the ability of a test compound to inhibit the growth of the human breast cancer cell line MCF-7 in cell culture. The test may be similar to that described by Lippman et al (Cancer Res., 1976, 36, 4595).

As to `C#CCN(Cc1ccc2nc(N)[nH]c(=O)c2c1)c1ccc(C(=O)N[C@@H](CCC(=O)O)C(=O)O)cc1` [CB3717], the toxicity in humans entry in data set [1] is “symptoms of toxicity in humans, particularly in relation to the liver and kidneys”. For the same compound, in data set [2], the “activity against human breast, ovarian and liver cancer” value is given as “promising activity”.
In the case of `C#CCN(Cc1ccc2nc(C)[nH]c(=O)c2c1)c1ccc(C(=O)N[C@@H](CCC(=O)N(C)[C@@H](CCC(=O)O)C(=O)O)C(=O)O)cc1` [Example 1, N-p-[N-(3,4-Dihydro-2-methyl-4-oxoquinazolin-6-ylmethyl)-N-(prop-2-ynyl)amino]benzoyl-L-γ-glutamyl-N-methyl-L-glutamic acid], the IC50 in the data set on L1210 cell line was determined as 240 nM; with MCF-7 cell line, 300 nM.
